Results on 27 compounds are retold here after ChEMBL document CHEMBL1139561, “Biaryl isoxazolinone antibacterial agents” (Bioorg Med Chem Lett, 2005).

Structures are written as SMILES. Converted amounts (≈) assume the structure as drawn. Bounds are passed on as bounds.

In one data set the test system is Haemophilus influenzae. The data set is described as follows: Minimum inhibition concentration against Haemophilus influenzae strains. It counts as functional.
Data set [1] deals with Staphylococcus aureus. The data set can be described thus: Minimum inhibition concentration against Staphylococcus aureus strains in presence of 4% calf serum. Type of data set: functional.
The test system of data set [2] is Staphylococcus aureus. The data set is described as follows: Minimum inhibition concentration against Staphylococcus aureus strains in presence of 1% calf serum. Type of data set: functional.
For data set [3], the system named is Staphylococcus aureus. The data set can be described thus: Minimum inhibition concentration against Staphylococcus aureus strains in presence of 32% calf serum. Type of data set: functional.
For data set [4], the system named is Staphylococcus aureus. The data set is described as follows: Minimum inhibition concentration against Staphylococcus aureus strains in presence of 8% calf serum. Type of data set: functional.
Data set [5] is described as follows: Half life for compound in mouse was determined. Type of data set: ADME. The note with it: in vivo.
The subject of data set [6] is Staphylococcus aureus. The data set is described as follows: Minimum inhibition concentration against Staphylococcus aureus strains in presence of 0.5% calf serum. It counts as functional.
Data set [7] in a line: Area under curve concentration in mouse was determined. Type of data set: ADME. Conditions: in vivo.
Data set [8] can be described thus: Protective dose against Staphylococcus aureus in mice after 8 days of oral b.i.d. administration at 1 and 5 hr per interval (n=10). It counts as functional. The note with it: read-out: PD50.
Data set [9] can be described thus: Maximum serum concentration in mouse was determined. It counts as ADME, organism-based.
Data set [10] in a line: Half life for compound in rat was determined. It counts as ADME. Conditions: in vivo.
Data set [11] is described as follows: Maximum serum concentration in rat was determined. It counts as ADME, organism-based.
Data set [12] has as its system Staphylococcus aureus. The data set is described as follows: Minimum inhibition concentration against Staphylococcus aureus strains in presence of 16% calf serum. Type of data set: functional.
Data set [13] relates to Staphylococcus aureus. The data set can be described thus: Minimum inhibition concentration against Staphylococcus aureus strains in presence of 2% calf serum. It counts as functional.
Data set [14] concerns Staphylococcus aureus. The data set is described as follows: Minimum inhibition concentration against Staphylococcus aureus strains in presence of >64% calf serum. It counts as functional.

`CC(=O)NCn1cc(-c2ccc(C3=CCSCC3)cc2)c(=O)o1`: the MIC with Haemophilus influenzae was determined as 32 µg/mL (≈ 96.8 µM); with Staphylococcus aureus [1], 1 µg/mL.
As to `CC(=O)NCn1cc(-c2ccc(-c3sccc3C=O)cc2)c(=O)o1`, the MIC against Haemophilus influenzae stood at 64 µg/mL (≈ 187 µM); with Staphylococcus aureus [2], 0.5 µg/mL.
Consider `CC(=O)NCn1cc(-c2ccc(-c3cccc4ccccc34)cc2)c(=O)o1`, for which the values for the MIC against Haemophilus influenzae, with Staphylococcus aureus [3] and in the data set on Staphylococcus aureus [3] (Staphylococcus aureus) were > 32 µg/mL, 1 µg/mL and 1 µg/mL, respectively.
`CC(=O)NCn1cc(-c2ccc(C3=CCOCC3)cc2)c(=O)o1`: the figures for the MIC with Haemophilus influenzae and in the data set with Staphylococcus aureus [2] were 4 µg/mL (≈ 12.7 µM) and 0.25 µg/mL, respectively.
As for `CC(=O)NCn1cc(-c2ccc(C3=CCNCC3)cc2)c(=O)o1`, the MIC with Haemophilus influenzae is 16 µg/mL (≈ 51.1 µM); with Staphylococcus aureus [4] it was 8 µg/mL.
As to `CC(=O)NCn1cc(-c2ccc(C3=CCN(C(=O)CO)CC3)cc2)c(=O)o1`, the results for the half-life in data set [5] and in [10] were 23.5 min and 36 min, respectively. Also, the results for the MIC against Haemophilus influenzae and with Staphylococcus aureus [6] were 2 µg/mL (≈ 5.39 µM) and 0.25 µg/mL, respectively. Also, the AUC in data set [7] worked out at 16.9 µg/h/mL. Also, the ED50 in [8] was 4 mg/kg/day. The Cmax – broadly, the peak of the concentration-time curve – in data set [9] is 22900 ng/mL; in data set [11], 1900 ng/mL.
Take `CC(=O)NCn1cc(-c2ccc(C3CCN(C(=O)OC(C)(C)C)CC3)cc2)c(=O)o1`: the results for the MIC against Haemophilus influenzae and with Staphylococcus aureus [12] were 32 µg/mL (≈ 77 µM) and 8 µg/mL, respectively.
On to `CC(=O)NCn1cc(-c2ccc(C3=CCN(C(=O)OC(C)(C)C)CC3)cc2)c(=O)o1`, for which the figures for the MIC against Haemophilus influenzae and in the data set with Staphylococcus aureus [3] (Staphylococcus aureus) were > 64 µg/mL and 8 µg/mL, respectively.
With `CC(=O)NCn1cc(-c2ccc(C3CCNCC3)cc2)c(=O)o1`, the MIC in the data set on Haemophilus influenzae is 32 µg/mL (≈ 101 µM); in the data set on Staphylococcus aureus [12], 32 µg/mL.
With `CC(=O)NCn1cc(-c2ccc(-c3ccc(Cl)s3)cc2)c(=O)o1`, the MIC with Haemophilus influenzae was 4 µg/mL (≈ 11.5 µM); with Staphylococcus aureus [4] it was 0.06 µg/mL.
For the compound `CC(=O)NCn1cc(-c2ccc(C3CCN(C(=O)CO)CC3)cc2)c(=O)o1`, the MIC with Haemophilus influenzae is 16 µg/mL (≈ 42.8 µM); in the data set with Staphylococcus aureus [13], 1 µg/mL. In data set [8], the ED50 is > 3.5 mg/kg/day.
`CC(=O)NCn1cc(-c2ccc(C3=CC[S+]([O-])CC3)cc2)c(=O)o1` (stereo not drawn): in data set [5], the half-life – broadly, the time in which the quantity being followed falls by half – came out at 22.2 min. The MIC came out at 2 µg/mL (≈ 5.77 µM) against Haemophilus influenzae and 0.5 µg/mL in the data set on Staphylococcus aureus [2]. The compound also registered an AUC in data set [7] of 5.5 µg/h/mL. The ED50 in data set [8] is 5.6 mg/kg/day. Besides, the concentration in data set [9] peaked (Cmax) at 8300 ng/mL.
Turning to `CC(=O)NCn1cc(-c2ccc(C3=CCN(C(=N)N)CC3)cc2)c(=O)o1`, the values for the MIC in the data set with Haemophilus influenzae and in the data set on Staphylococcus aureus [12] were 32 µg/mL (≈ 90 µM) and 8 µg/mL, respectively.
The compound `CC(=O)NCn1cc(-c2ccc(C3=CCS(=O)(=O)CC3)cc2)c(=O)o1` yielded a half-life in data set [5] of 12.2 min. Moreover, the MIC in the data set with Haemophilus influenzae was found to be 4 µg/mL (≈ 11 µM); with Staphylococcus aureus [2], 0.5 µg/mL. Further, the AUC in [7] is 19.4 µg/h/mL. Also, the ED50 in data set [8] came to 4 mg/kg/day. Further, the Cmax in [9] worked out at 17700 ng/mL.
Regarding `CC(=O)NCn1cc(-c2ccc(-c3ccco3)cc2)c(=O)o1`, the MIC was determined as 16 µg/mL (≈ 53.6 µM) against Haemophilus influenzae and 1 µg/mL in the data set on Staphylococcus aureus [3] (Staphylococcus aureus).
As to `CC(=O)NCn1cc(-c2ccc(-c3ccc(O)cc3)cc2)c(=O)o1`, the values for the MIC with Haemophilus influenzae and in the data set on Staphylococcus aureus [13] were 8 µg/mL (≈ 24.7 µM) and 1 µg/mL, respectively.
Consider `CC(=O)NCn1cc(-c2ccc(-c3ccc(F)c(C(=O)O)c3)cc2)c(=O)o1`, for which the MIC is 64 µg/mL (≈ 173 µM) in the data set on Haemophilus influenzae and 32 µg/mL in the data set on Staphylococcus aureus [14].
For `CC(=O)NCn1cc(-c2ccc(-c3cc(C)cs3)cc2)c(=O)o1`, the results for the MIC against Haemophilus influenzae and with Staphylococcus aureus [1] were > 64 µg/mL and 0.25 µg/mL, respectively.
Take `CC(=O)NCn1cc(-c2ccc(-c3ccc(F)cc3F)cc2)c(=O)o1`: the MIC was determined as 4 µg/mL (≈ 11.6 µM) with Haemophilus influenzae and 0.125 µg/mL in the data set with Staphylococcus aureus [1].
Take `CC(=O)NCn1cc(-c2ccc(-c3ccncc3)cc2)c(=O)o1`: the half-life in data set [5] came to 203 min. Also, the MIC against Haemophilus influenzae came to 2 µg/mL (≈ 6.47 µM); in the data set on Staphylococcus aureus [6], 0.06 µg/mL. Besides, the AUC in data set [7] stood at 56 µg/h/mL. The ED50 in [8] came out at 8.9 mg/kg/day. Besides, the peak level in data set [9] (Cmax) was 17700 ng/mL.
As to `COc1cccc(-c2ccc(-c3cn(CNC(C)=O)oc3=O)cc2)c1`, the MIC with Haemophilus influenzae was > 64 µg/mL; in the data set on Staphylococcus aureus [2] it was 0.06 µg/mL.
For `CC(=O)NCn1cc(-c2ccc(-c3ccc(OC(F)(F)F)cc3)cc2)c(=O)o1`, the MIC was > 32 µg/mL with Haemophilus influenzae and 0.5 µg/mL with Staphylococcus aureus [12].
With `CC(=O)NCn1cc(-c2ccc(-c3ccccn3)cc2)c(=O)o1`, the MIC against Haemophilus influenzae was 8 µg/mL (≈ 25.9 µM); with Staphylococcus aureus [13] it was 1 µg/mL.
`COc1ccc(-c2ccc(-c3cn(CNC(C)=O)oc3=O)cc2)c(OC)c1`: the MIC was > 32 µg/mL in the data set with Haemophilus influenzae and 2 µg/mL in the data set on Staphylococcus aureus [4].
Regarding `CC(=O)NCn1cc(-c2ccc(-c3cncs3)cc2)c(=O)o1`, the MIC with Haemophilus influenzae was 4 µg/mL (≈ 12.7 µM); in the data set on Staphylococcus aureus [1], 0.5 µg/mL.
Turning to `CC(=O)NCn1cc(-c2ccc(-c3cccnc3)cc2)c(=O)o1`, the half-life in data set [5] was 86.7 min. Further, the figures for the MIC against Haemophilus influenzae and with Staphylococcus aureus [1] were 2 µg/mL (≈ 6.47 µM) and 0.5 µg/mL, respectively. For the same compound, the AUC in [7] turned out to be 41.1 µg/h/mL. Besides, the ED50 in data set [8] is 10 mg/kg/day. Besides, the highest concentration (Cmax) in [9] was 15300 ng/mL.
Take `CC(=O)NCn1cc(-c2ccc(-c3c(C)noc3C)cc2)c(=O)o1`: the results for the MIC against Haemophilus influenzae and with Staphylococcus aureus [4] were > 64 µg/mL and 2 µg/mL, respectively.
